Read-outs that look alike come from different tables or passages of the source. Where no end group is shown, it is not given here. [ ]: non-standard residue; d: D form. Tyr(3-I) = N[C@@H](Cc1ccc(O)c(I)c1)C(=O)O
Assays:
CEGPCR16 receptor = target: T1, CEGPCR16 receptor (Caenorhabditis elegans, UniProt Q9XXU4); assay: [35S]GTPγS binding assay, CEGPCR16 expressed in CHO cells; type: biochemical, C. elegans
T1 sequence (Q9XXU4 1-365): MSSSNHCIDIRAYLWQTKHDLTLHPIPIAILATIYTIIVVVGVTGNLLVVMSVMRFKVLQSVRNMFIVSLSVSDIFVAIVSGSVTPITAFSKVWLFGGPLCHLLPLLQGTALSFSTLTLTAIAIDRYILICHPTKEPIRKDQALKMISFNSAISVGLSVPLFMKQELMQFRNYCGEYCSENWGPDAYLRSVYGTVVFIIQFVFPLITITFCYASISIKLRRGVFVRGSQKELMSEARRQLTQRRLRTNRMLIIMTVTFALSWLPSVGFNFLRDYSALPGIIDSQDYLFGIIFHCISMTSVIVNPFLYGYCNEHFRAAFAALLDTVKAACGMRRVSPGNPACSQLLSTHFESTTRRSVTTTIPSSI
Protocol: (§1) Recombinant pCR3.1 clones encoding invertebrate GPCR-like receptors were transformed into wild-type CHO-K1 cells and functional expression was achieved using a temperature-shift incubation protocol. The CHO-K1 cells were cultured at 37° C. in a humidified atmosphere of 5% CO2 in air in DMEM medium supplemented with 10% heat-inactivated fetal bovine serum (i.e., FBS), 10 μg/ml gentamicin, and 0.1 mM nonessential amino acids to give complete DMEM medium. Additionally, for incubations at temperatures lower than 37° C., the medium was fortified with 10 mM HEPES (pH 7.4). Cells were transfected with recombinant pCR3.1 clones containing GPCR-like receptor DNAs, using LipofectAMINE PLUS™, essentially according to the manufacturer's instructions. […] In separate plastic tubes, PLUS (20 μl/plate; Life Technologies) was added to 0.75 ml/plate of recombinant plasmid DNA in OptiMEM (5 μg/plate; Gibco/BRL—Life Technologies), mixed and incubated at room temperature for 15 minutes. Separately, LipofectAMINE (30 μl/plate) was mixed with 0.75 ml OptiMEM and added to the pre-complexed DNA/PLUS mixture and incubated at room temperature for 15 minutes. The culture medium was then replaced with serum-free transfection medium (DMEM, 5 ml/plate). The DNA-PLUS-LipofectAMINE complex was then added to the plates (1.5 ml/plate) and mixed gently into the medium, followed by a 3 hour incubation at 37° C. in 5% CO2. At this time, the medium was supplemented with complete DMEM medium containing 20% FBS (6.5 ml/plate) and incubation was continued at 37° C. in 5% CO2. After a total of 24 hours at 37° C. in 5% CO2, the medium was replaced with complete DMEM medium fortified with 10 mM HEPES (10 ml/plate) and the cells were moved to an incubator maintained at 28-30° C. in a humidified atmosphere of 5% CO2 in air. The incubation continued for an additional 24 hours, typically at the lower temperature indicated above. A plasmid encoding Green Fluorescent Protein (i.e., GFP, 4 μg/plate) was used for transient GFP expression in CHO-K1 cells to estimate the transfection yields under the same conditions as used for GPCR-like receptor polynucleotides.
(§2) To assess expression, membranes were prepared from transfected CHO-K1 cells. Transfected cells were washed once with ice-cold Dulbecco's phosphate-buffered saline (i.e., PBS), 5 ml per 10 cm plate, and the cells were scraped into 5 ml of the same buffer. Cell suspensions from multiple plates were combined and centrifuged at 500×g for 10 minutes at 4° C. The cell pellet was reconstituted in ice-cold TEE (25 mM Tris, pH 7.4, 5 mM EGTA, 5 mM EDTA). Convenient aliquots were snap-frozen in liquid nitrogen and stored at −70° C. After thawing, the cells were homogenized and centrifuged at 500×g for 5 minutes at 4° C. to pellet nuclei and unbroken cells. Tile supernatant was centrifuged at 47,000×g for 30 minutes at 4° C. The membrane pellet was washed once with TEE, resuspended in 20 mM HEPES, pH 7.4, 100 mM NaCl, 10 mM MgCl2, 1 mM EDTA (assay buffer), distributed into aliquots of 0.5-1.0 ml, and frozen in liquid nitrogen. Membrane aliquots were stored at −70° C. Membrane protein concentration was determined using the BCA Protein Assay Reagent from Pierce (Rockford, Ill.), with bovine serum albumin (i.e., BSA) as a standard.
(§3) Aliquots of cell membranes prepared as described above and stored at −70° C. were thawed, homogenized, and diluted into buffer containing 20 mM HEPES, pH 7.4, 10 mM MgCl2, 1 mM EDTA, and 100 mM NaCl at a concentration of 10-50 μg/ml. Reaction mixtures were prepared in 96-well polypropylene plate, Nunc. Twenty microliters of a 10× putative modulator compound (including but not limited to potential peptide ligands) solution or a water control (20 μl), 18.2 µM GDP (0.11 ml, 10 μM final concentration), and a membrane preparation were mixed and placed on ice. The modulator/ligand-GDP-membrane mixtures were incubated for 20 minutes at room temperature on a shaking platform and then placed on ice.

CEGPCR5 = target: T2, CEGPCR5 (Caenorhabditis elegans, UniProt Q18179); assay: [35S]GTPγS binding assay, CEGPCR5 expressed in CHO cells; type: biochemical, C. elegans
T2 sequence (Q18179 1-402): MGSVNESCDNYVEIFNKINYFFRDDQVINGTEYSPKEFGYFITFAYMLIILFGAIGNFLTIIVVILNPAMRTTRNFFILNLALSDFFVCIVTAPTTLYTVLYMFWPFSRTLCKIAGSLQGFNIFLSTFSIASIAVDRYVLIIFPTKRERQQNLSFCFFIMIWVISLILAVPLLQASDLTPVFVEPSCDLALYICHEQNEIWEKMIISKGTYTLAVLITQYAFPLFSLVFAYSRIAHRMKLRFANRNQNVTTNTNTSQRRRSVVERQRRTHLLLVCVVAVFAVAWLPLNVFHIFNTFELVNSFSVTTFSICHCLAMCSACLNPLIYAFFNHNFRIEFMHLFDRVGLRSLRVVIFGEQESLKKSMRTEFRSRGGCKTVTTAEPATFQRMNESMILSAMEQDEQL
Protocol: as §1, §2, §3

CEGPCR12h receptor = target: T3, CEGPCR12h receptor (Caenorhabditis elegans, UniProt Q20275); assay: [35S]GTPγS binding assay, CEGPCR12h expressed in CHO cells; type: biochemical, C. elegans; settings: Table 11; peptides tested at 5 μM
T3 sequence (Q20275 1-402): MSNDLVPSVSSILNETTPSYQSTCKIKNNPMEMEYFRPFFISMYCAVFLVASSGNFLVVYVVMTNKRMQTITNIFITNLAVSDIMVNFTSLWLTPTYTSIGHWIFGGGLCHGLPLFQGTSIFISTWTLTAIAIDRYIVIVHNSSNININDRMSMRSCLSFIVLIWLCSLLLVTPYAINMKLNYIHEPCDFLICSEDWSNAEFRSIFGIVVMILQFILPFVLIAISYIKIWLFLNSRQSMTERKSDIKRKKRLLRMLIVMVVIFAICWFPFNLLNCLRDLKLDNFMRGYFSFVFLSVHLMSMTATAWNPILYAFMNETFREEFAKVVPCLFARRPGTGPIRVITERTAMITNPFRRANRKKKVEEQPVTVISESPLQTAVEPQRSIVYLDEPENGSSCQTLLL
Protocol: as §1, §2, §3

CEGPCR4 = target: T4, CEGPCR4 (C. elegans); assay: competition binding assay, CEGPCR4/CHO membranes; IC50 range printed once for block r39-r54
T4 construct: Expressed in CHO cells; also called CEGPCR4 receptor; CEGPCR4/CHO membranes
T4 chain: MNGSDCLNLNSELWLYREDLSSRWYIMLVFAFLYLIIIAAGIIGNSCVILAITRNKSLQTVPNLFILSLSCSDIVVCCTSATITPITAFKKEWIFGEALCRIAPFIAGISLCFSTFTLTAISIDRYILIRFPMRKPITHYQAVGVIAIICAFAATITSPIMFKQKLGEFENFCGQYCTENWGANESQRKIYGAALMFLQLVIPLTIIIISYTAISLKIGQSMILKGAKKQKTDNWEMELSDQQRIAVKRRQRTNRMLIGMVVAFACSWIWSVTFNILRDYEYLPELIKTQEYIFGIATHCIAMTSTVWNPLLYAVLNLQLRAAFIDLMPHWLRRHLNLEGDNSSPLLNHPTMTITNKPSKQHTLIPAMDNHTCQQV

[1] = Table 10, one range for the group of peptides, read-out: EC50 range
[2] = EC50 range, Table 9, one range for the group of peptides

Molecule	EC50 (CEGPCR16 receptor; [1]) [nM]	binding result (CEGPCR4)	further results
SADDSAPFGTMRF-NH2 [SADDSAPFGTMRF-NH2]	60 to 300	–	–
KHEYLRF-NH2 [KHEYLRF-NH2]	–	–	EC50 (CEGPCR5): 1000 to 8000 nM
YGLGPRPLRF-NH2 [YGLGPRPLRF-NH2]	–	–	EC50 (CEGPCR5; [2]): 80 to 800 nM
GDVPGVLRF-NH2 [GDVPGVLRF-NH2]	700 to 4600	–	activity at single concentration (CEGPCR12h receptor): active at
EDGNAPFGTMRF-NH2 [EDGNAPFGTMRF-NH2]	60 to 300	–	–
EIPGVLRF-NH2 [EIPGVLRF-NH2]	700 to 4600	–	–
DFDGAMPGVLRF-NH2 [DFDGAMPGVLRF-NH2]	700 to 4600	–	–
KPNFLRY-NH2 [KPNFLRY-NH2]	–	–	EC50 (CEGPCR5; [2]): 1000 to 8000 nM
SVPGVLRF-NH2 [SVPGVLRF-NH2]	60 to 300	–	EC50 (CEGPCR16 receptor; read-out: EC50): 64 nM; activity at single concentration (CEGPCR12h receptor): active at; EC50 (CEGPCR5): 80 to 800 nM
KSVPGVLRF-NH2 [KSVPGVLRF-NH2]	700 to 4600	–	activity at single concentration (CEGPCR12h receptor): active at; EC50 (CEGPCR5): 1000 to 8000 nM
DPSFLRF-NH2 [DPSFLRF-NH2]	–	–	EC50 (CEGPCR5): 80 to 800 nM
VPGVLRF-NH2 (synthetic) [VPGVLRF-NH2]	–	binds	–
[Tyr(3-I)]PGVLRF-NH2 (N-terminus assumed; SMILES CC(C)C[C@H](NC(=O)[C@@H](NC(=O)CNC(=O)[C@@H]1CCCN1C(=O)[C@@H](N)Cc1ccc(O)c(I)c1)C(C)C)C(=O)N[C@@H](CCCNC(=N)N)C(=O)N[C@@H](Cc1ccccc1)C(N)=O, synthetic) [3-Iodo-Y-PGVLRF-NH2]	–	binds	–
YPGVLRF-NH2 (synthetic) [Y-PGVLRF-NH2]	–	binds	–
Ac-GVLRF-NH2 (synthetic) [Ac-GVLRF-NH2]	–	binds	–
GVLRF-NH2 (synthetic) [GVLRF-NH2]	–	binds	–
Ac-VPGVLRF-NH2 (synthetic) [Ac-VPGVLRF-NH2]	–	binds	–
YGVLRF-NH2 (synthetic) [Y-GVLRF-NH2]	–	binds	–
PGVLRF-NH2 (synthetic) [PGVLRF-NH2]	–	binds	–

Reference: patent US6632621B1, “G protein-coupled receptor-like receptors and modulators thereof” (priority 1999, dated 2003)
